Laboratory results: the supplement of paper PMC13380429

Legend:
Settings in all cases: 72 h
Caco-2 [1] = assay: cell viability relative to DMSO; higher = less toxic
Calu-3 [2] = assay: as above
HepG2 [3] = assay: as above
U2OS [4] = assay: as above
Vero E6 [5] = assay: as above
Calu-3 [6] = assay: relative viability EC50 (midpoint between 100% and the lowest measured viability); higher = less toxic
HepG2 [7] = assay: as above
U2OS [8] = assay: as above
Vero E6 [9] = assay: as above
Caco-2 [10] = assay: drug sensitivity score (DSS) for viability; higher = more toxic; extreme values may be limits of the assay
Calu-3 [11] = assay: as above
HepG2 [12] = assay: as above
U2OS [13] = assay: as above
Vero E6 [14] = assay: as above
Caco-2 [15] = assay: relative viability EC50 (midpoint between 100% and the lowest measured viability); higher = less toxic

Structure (SMILES) | cell viability (Caco-2 [1]; 1 nM) | cell viability (Caco-2 [1]; 10 nM) | cell viability (Caco-2 [1]; 100 nM) | cell viability (Caco-2 [1]; 1000 nM) | cell viability (Caco-2 [1]; 10000 nM) | cell viability (Calu-3 [2]; 1 nM) | cell viability (Calu-3 [2]; 10 nM) | cell viability (Calu-3 [2]; 100 nM) | cell viability (Calu-3 [2]; 1000 nM) | cell viability (Calu-3 [2]; 10000 nM) | cell viability (HepG2 [3]; 1 nM) | cell viability (HepG2 [3]; 10 nM) | cell viability (HepG2 [3]; 100 nM) | cell viability (HepG2 [3]; 1000 nM) | cell viability (HepG2 [3]; 10000 nM) | cell viability (U2OS [4]; 1 nM) | cell viability (U2OS [4]; 10 nM) | cell viability (U2OS [4]; 100 nM) | cell viability (U2OS [4]; 1000 nM) | cell viability (U2OS [4]; 10000 nM) | cell viability (Vero E6 [5]; 1 nM) | cell viability (Vero E6 [5]; 10 nM) | cell viability (Vero E6 [5]; 100 nM) | cell viability (Vero E6 [5]; 1000 nM) | cell viability (Vero E6 [5]; 10000 nM) | relative viability EC50 (Calu-3 [6]) | relative viability EC50 (HepG2 [7]) | relative viability EC50 (U2OS [8]) | relative viability EC50 (Vero E6 [9]) | drug sensitivity score (Caco-2 [10]) | drug sensitivity score (Calu-3 [11]) | drug sensitivity score (HepG2 [12]) | drug sensitivity score (U2OS [13]) | drug sensitivity score (Vero E6 [14]) | relative viability EC50 (Caco-2 [15])
Cc1cc2c(N3CCCC3)nc(N3CCCC3)nc2n1C | 103% | 92.2% | 96.9% | 97.6% | 71.8% | 103% | 110% | 93.5% | 94.5% | 106% | 109% | 94.3% | 101% | 100% | 78.4% | 96.2% | 101% | 101% | 101% | 93.5% | 104% | 96% | 104% | 99.3% | 93.5% | > 10 µM | > 10 µM | > 10 µM | > 10 µM | 1.5 | 0 | 0.7 | 0 | 0 | –
COc1cc2c(cc1NS(=O)(=O)c1ccc(Br)cc1C)n(C)c(=O)n2C [OF-1] | 94% | 95.3% | 102% | 86.2% | 78.2% | – | – | – | – | – | 96.5% | 101% | 97.1% | 87.8% | 42.3% | 99.1% | 94.6% | 103% | 93% | 88.3% | 105% | 102% | 96.4% | 99.7% | 88% | – | 1.69 µM | > 10 µM | > 10 µM | 2.1 | – | 5.1 | 0.3 | 0.1 | > 10 µM
NCCCCN=C(N)N [agmatine] | 114% | 82.8% | 92.5% | 82.5% | 72.2% | 94.8% | 95.7% | 93.2% | 89.4% | 99.9% | 95.5% | 96.6% | 99.4% | 110% | 94.7% | 103% | 96.3% | 100% | 100% | 99.2% | 103% | 97.6% | 97.4% | 104% | 88.6% | > 10 µM | > 10 µM | > 10 µM | > 10 µM | 3.4 | 0 | 0 | 0 | 0 | –
CON [methoxyamine] | 102% | 102% | 99.9% | 96.9% | 100% | – | – | – | – | – | 110% | 110% | 102% | 99.7% | 96.8% | 99.2% | 103% | 96.7% | 103% | 96.4% | 108% | 94.6% | 99.3% | 106% | 106% | – | > 10 µM | > 10 µM | > 10 µM | 0 | – | 0 | 0 | 0 | > 10 µM
O=P1(N(CCCl)CCCl)NCCCO1 (configuration not stated) [cyclophosphamide] | 100% | 100% | 95.6% | 86.7% | 98.6% | – | – | – | – | – | 91.9% | 98.9% | 91.5% | 99.8% | 105% | 102% | 102% | 101% | 95.5% | 99.2% | 97.6% | 99.8% | 99.4% | 98.2% | 94% | – | > 10 µM | > 10 µM | > 10 µM | 0 | – | 0 | 0 | 0 | > 10 µM
COc1cc2nc(N3CCCN(C)CC3)nc(NC3CCN(Cc4ccccc4)CC3)c2cc1OC | 96.1% | 104% | 88.9% | 108% | 54.9% | 84.2% | 100% | 89.7% | 94.1% | 12.6% | 98.8% | 85.4% | 91.4% | 67.5% | 10.3% | 98% | 100% | 95% | 96.6% | 43.8% | 106% | 97.4% | 99.7% | 96.2% | 26.1% | 2.62 µM | 1.37 µM | 2.69 µM | 2.77 µM | 1.9 | 5.7 | 8.8 | 3.5 | 4.6 | –
COc1ccc2cc([C@H](C)C(=O)O)ccc2c1 [naproxen] | 95.1% | 101% | 102% | 94.9% | 95.3% | – | – | – | – | – | 106% | 103% | 104% | 100% | 99.4% | 101% | 102% | 98.4% | 96.8% | 102% | 109% | 97.8% | 98.2% | 101% | 100% | > 10 µM | > 10 µM | > 10 µM | > 10 µM | 0 | 0 | 0 | 0 | 0 | > 10 µM
O=C(O)CCn1c2c(c3ccccc31)C[C@H](NS(=O)(=O)c1ccc(F)cc1)CC2 [ramatroban] | – | – | – | – | – | 92.4% | 97.7% | 94.1% | 104% | 101% | 104% | 95.6% | 103% | 93.6% | 110% | 100% | 98.4% | 95.8% | 101% | 104% | 98% | 95.7% | 92.4% | 97.4% | 104% | > 10 µM | > 10 µM | > 10 µM | > 10 µM | – | 0 | 0 | 0 | 0 | –
CNc1cc2[nH]c(=O)n(-c3ccc(NC(=O)NS(=O)(=O)c4ccc(Cl)s4)cc3)c(=O)c2cc1F [elinogrel] | 95.7% | 103% | 97.2% | 98.3% | 101% | – | – | – | – | – | 100% | 91.4% | 89.7% | 94.1% | 99.8% | 95.6% | 101% | 100% | 103% | 104% | 94.6% | 95.2% | 95.2% | 95.3% | 100% | – | > 10 µM | > 10 µM | > 10 µM | 0 | – | 0 | 0 | 0 | > 10 µM
